# Key:
# Jurkat (JM) cells = test: Staining of proliferating Jurkat cells with labelling agent and propidium iodide, fluorescence microscopy; type: cell-based; settings: 10 μL agent (100 μg pr. mL DMSO) added to 90 μL cells, only exception PI positive cells
# Protocol: (§1) Materials and Methods. Jurkat (JM) cells were grown at 37° C. in a humidified air atmosphere with 5% CO2 in RPMI (Invitrogen, #61870) supplemented with 10% heat-inactivated fetal bovine serum (Invitrogen, #10108-165). 90 μL proliferating Jurkat cells (cell density 1.2×10^6, 99% viable determined using the NC-100 NucleoCounter system following the manufacturer's (ChemoMetec A/S) protocol) were added 10 μL NAM (N-(9-acridinyl)maleimide, Sigma, #01665, CAS no. 49759-20-8) dissolved in DMSO (100 μg NAM pr. mL DMSO) and mixed by pipetting. Cells were loaded into a NucleoCassette, containing the DNA stain propidium iodide (PI). The cells were investigated using an Olympus IX50 fluorescence microscope, and images were captured using a Lumenera CCD camera and in-house developed software. PI and NAM fluorescence were detected using, respectively, U-MWG2 (green long pass: 510-550 nm) and U-MNUA2 (UV band pass, 330-385 nm) filter cubes (Olympus).
# as §1, with “1.0×10^6,” for “1.2×10^6,”, “(ChemoMetec)” for “(ChemoMetec A/S)”, “CPM (7-diethylamino-3-[4′-maleimidylphenyl]-4-methylcoumarin, Chemodex Ltd.,” for “NAM (N-(9-acridinyl)maleimide, Sigma, #01665,”, “76877-33-3)” for “49759-20-8)”, “CPM” for “NAM”
# as §1, with “1.1×10^6, 98%” for “1.2×10^6, 99%”, “(ChemoMetec)” for “(ChemoMetec A/S)”, “PM (N-(1-Pyrenyl)maleimide, Sigma P7908” for “NAM (N-(9-acridinyl)maleimide, Sigma, #01665,”, “42189-56-0)” for “49759-20-8)”, “PM” for “NAM”, “Cells were loaded into a NucleoCassette, containing the DNA stain propidium iodide (PI).” left out
# Materials and Methods. […] 90 μL proliferating Jurkat cells (cell density 1.1×10^6, 98% viable determined using the NC-100 NucleoCounter system following the manufacturer's (ChemoMetec) protocol) were added 10 μL CPI (7-diethylamino-3-((4′-(iodoacetyl)amino)phenyl)-4-methylcoumarin, Sigma 78264 CAS no. 76877-34-4) dissolved in DMSO (100 μg CPI pr. mL DMSO) and mixed by pipetting. […] The cells were investigated using an Olympus IX50 fluorescence microscope, and images were captured using a Lumenera CCD camera and in-house developed software. PI and CPI fluorescence were detected using, respectively, U-MWG2 (green long pass: 510-550 nm) and U-MNUA2 (UV band pass, 330-385 nm) filter cubes (Olympus). […]
# Drosophila S2 cells = test: NAM/PI staining of Drosophila S2 cells, fluorescence microscopy; type: cell-based, Drosophila melanogaster; settings: S2 cells diluted 10 times in PBS; 10 μg/mL NAM
# Protocol: Materials and Methods. Drosophila S2 cells were grown at 28° C. without shaking in Schneider's Drosophila medium (Invitrogen, #21720) supplemented with 10% heat-inactivated fetal bovine serum (Invitrogen, #10108-165). S2 cells (cell density 1.7×10^7, 99% viable determined using the YC-100 NucleoCounter system with diploid settings following the manufacturer's (ChemoMetec) protocol) were diluted 10 times in PBS and stained with 10 μg/mL NAM (Sigma, #01665). Cells were loaded into a NucleoCassette, containing the DNA stain propidium iodide (PI). The cells were investigated using an Olympus IX50 fluorescence microscope, and images were captured using a Lumenera CCD camera and in-house developed software. PI and NAM fluorescence were detected using, respectively, U-MWG2 (green long pass: 510-550 nm) and U-MNUA2 (UV band pass, 330-385 nm) filter cubes (Olympus).
# [1] = system: primary murine splenocytes; test: NAM/PI staining of primary murine splenocytes; type: cell-based, C57BL/6 mouse; settings: splenocytes 90% viable; 10 μL NAM (100 μg pr. mL DMSO) to 90 μL cells
# Protocol: Materials and Methods. The spleen from a C57BL/6 mouse was placed in ice-cold PBS and gently ground using the end of a sterile syringe. The suspension was centrifuged at 300 g for 10 minutes; the pellet was resuspended in 1 mL 0.83% NH4Cl to lyse erythrocytes and incubated for 3 minutes on ice. The cells were then added 14 mL PBS and centrifuged at 300 g for 10 minutes. The splenocytes were resuspended in RPMI (Invitrogen, #61870) supplemented with 10% heat-inactivated fetal bovine serum (Invitrogen, #10108-165), 100 U/mL penicillin and 100 μg/mL streptomycin (Invitrogen, #15140-122). The cell clumps were allowed to sediment and were removed by pipetting, and the resulting single cell suspension was used. 90 μL splenocytes (cell density 1.7×10^6, 90% viable determined using the NC-100 NucleoCounter system following the manufacturer's (ChemoMetec A/S) protocol) were added 10 μL NAM (N-(9-acridinyl)maleimide, Sigma, #01665, CAS no. 49759-20-8) dissolved in DMSO (100 μg NAM pr. mL DMSO) and mixed by pipetting. […] The cells were investigated using an Olympus IX50 fluorescence microscope, and images were captured using a Lumenera CCD camera and in-house developed software. PI and NAM fluorescence were detected using, respectively, U-MWG2 (green long pass: 510-550 nm) and U-MNUA2 (UV band pass, 330-385 nm) filter cubes (Olympus).
compound,measurement,setting,value
"O=C1C=CC(=O)N1c1c2ccccc2nc2ccccc12 [NAM, N-(9-acridinyl)maleimide]",staining of cells (UV filter) versus PI positive cells,Jurkat (JM) cells,nearly all cells in the proliferating Jurkat cell culture were stained by NAM
same,staining of cells versus PI,Drosophila S2 cells,NAM and PI were found to complementary stain S2 cells
same,staining of cells (UV filter) versus PI positive cells,[1],nearly all the primary spleen cells were stained by NAM

# Reference: US9128097B2, “Method and kit for assessing viable cells” (ChemoMetec A/S, priority 2008, dated 2015)
